This passage reports MIC results from patent publication US7312212B2, “Aminopiperidine derivatives” (priority 2002, dated 2007).

One experiment in a line: MIC of test compounds against various organisms. The experiment is classed as cell-based. Particulars: versus all of these organisms (S. epidermidis CL7, S. aureus WCUH29, S. pneumoniae 1629, S. pyogenes CN10, H. influenzae ATCC49247, E. faecalis 2, E. faecium 8, M. catarrhalis Ravisio, E. coli 7623). From the text: The MIC (μg/ml) of test compounds against various organisms may be determined:
S. epidermidis CL7, S. aureus WCUH29, S. pneumoniae 1629, S. pyogenes CN10, H. influenzae ATCC49247, E. faecalis 2, E. faecium 8, M. catarrhalis Ravisio, E. coli 7623.
For `COc1cc(F)c2nccc([C@@H](O)CN3CCC(NCc4ccc5c(n4)NC(=O)CO5)C(F)C3)c2c1` (single isomer, unassigned) [Example 26], the MIC is not above 2 µg/mL.
On the same count and under the same terms, then `COc1ccc2nccc([C@@H](O)CN3CCC(NCc4ccc5c(n4)NC(=O)CO5)C(F)C3)c2c1` (single isomer, unassigned) [Example 10], with not above 2 µg/mL; and `COc1ccc2nccc([C@@H](O)CN3CCC(NCc4ccc5c(n4)NC(=O)CO5)C(F)C3)c2n1` (single isomer, unassigned) [Example 20], with not above 2 µg/mL; and `COc1ccc2nccc([C@@H](O)CN3CCC(NCc4nc5c(cc4Cl)OCC(=O)N5)C(F)C3)c2n1` (single isomer, unassigned) [Example 24], with not above 2 µg/mL.
As for `COc1cc(F)c2nccc([C@@H](O)CN3CCC(NCc4ccc5c(n4)NC(=O)CS5)C(F)C3)c2c1` (single isomer, unassigned) [Example 27], the MIC is not above 2 µg/mL.
As to `COc1ccc2nccc([C@@H](O)CN3CCC(NCc4ccc5c(n4)NC(=O)CS5)C(F)C3)c2c1` (single isomer, unassigned) [Example 6], the MIC is not above 2 µg/mL.

The same experiment, now with this note: versus some of these organisms (panel of b704; which ones not stated).
For `COc1ccc2nccc([C@@H](O)CN3CC[C@@H](NCc4ccc5c(n4)NC(=O)CS5)C[C@H]3C(F)(F)F)c2n1` [Example 37], the MIC was not above 16 µg/mL.
